{
  "source": "paper PMC6005348",
  "about": "“Betahistine Treatment in a Cat Model of Vestibular Pathology: Pharmacokinetic and Pharmacodynamic Approaches” (Frontiers in Neurology, 2018)",
  "key": {"[1]": {"experiment": "Plasma pharmacokinetics of betahistine and 2-PAA after oral dosing in UVN cats (LC-MS/MS, non-compartmental analysis)", "format": "in vivo, cat", "settings": "for AUC / Cmax / Tmax / half-life: male, plasma, po; for half-life: read-out: Betahistine t1/2 (converted)", "method": "The experiments were performed on nine adult male UVN cats randomly allocated into three groups of cats. Three groups of three adult male cats received 0.2 mg/kg betahistine (N = 3: cats 1–3), 2 mg/kg betahistine (N = 3: cats 4–6), or 0.2 mg/kg betahistine plus 1 mg/kg selegiline (N = 3: cats 7–9). […] The samples were frozen at −80°C until analysis. Pharmacokinetic parameters of betahistine and its major metabolite 2-PAA were calculated by applying non-compartmental analysis.\nBetahistine and its internal standard, betahistine-d3, were extracted by liquid/liquid extraction from plasma under alkaline conditions toward 1-butanol/isooctane, followed by a second liquid/liquid extraction step of acidic 1-butanol/isooctane toward water. Betahistine concentration in plasma was analyzed using a validated LC-MS/MS method. In brief, an API 4000 (Applied Biosystems) mass spectrometer coupled with a Symbiosis HPLC system (Sparks, Emmen, The Netherlands) was employed to analyze betahistine. Extracts (100 μl) were injected into a XTerra RP18 150 ^* 4.6 mm, 3.5 μm column (Waters, Etten-Leur, The Netherlands) and separated at 30°C under isocratic conditions using an aqueous metanol solution containing 0.5 mM ammonium formate as mobile phase. Betahistine was quantified by a tandem mass spectrometer in positive MRM. Parent daughter transition was followed for betahistine (m/z 137 > 94). Betahistine-d3 dihydrochloride was used as internal standard. Pharmacokinetic parameters of betahistine were calculated by applying non-compartmental analysis using the validated PK software WinNonLin, version 5.23 (Pharsight Corporation, Mountain View, CA, USA).\nCmax and tmax were derived directly from the plasma concentration-time curves. Linear trapezoidal rule was used to calculate AUC0-t during the part of the curve with increasing plasma concentrations. For the descending part of the curve, the log-linear trapezoidal rule was used. Calculation of the elimination half-life (t1/2) was evaluated as ln 2/kel, with kel as the slope of the terminal phase of the plasma concentration-time curve."}, "[2]": {"test_system": "histidine decarboxylase (HDC)", "experiment": "Number of HDC immunoreactive neurons in the tuberomammillary nuclei (immunohistochemistry)", "format": "in vivo, cat", "method": "[…] animals were used for the immunohistochemical study to label the histamine synthesizing enzyme: the HDC. This study was performed on the same four groups of cats used for the behavioral investigation (cats 10–22). These lesioned animals (left UVN) were all killed 40 days after vestibular lesion. A supplementary group of intact animals (n = 4: cats 23–26) was used as a negative control group without vestibular lesion.\nCats were deeply anesthetized with ketamine dihydrochloride (20 mg/kg, i.m., Rhône Poulenc Mérieux) and perfused under isoflurane intubation (2%), through the ascending aorta, with 1 L of normal saline solution (0.9%) containing 0.1% heparine, and thereafter with 2 L of ice-cold 0.1 M phosphate buffer (PB, pH 7.4) including 4% paraformaldehyde and 0.2% picric acid.\nAfter removal from the skull, the brain was cut into several blocks and post-fixed overnight at 4°C in the same solution. The blocks were then rinsed and cryoprotected by increasing concentrations (10, 20, and 30%) of sucrose solution in 0.1 M PB for 72 h at 4°C. Blocks containing the TMN were rapidly frozen with CO2 gas, and coronal sections 20 μm thick were cut in a cryostat (Leica, Rueil-Malmaison, France).\nFree-floating sections were first incubated three times for 5 min in PBS (phosphate buffer saline 0.1 M), then for 1 h in 10% BSA, and 0.25% Triton X-100. Thereafter, sections were incubated under continuous agitation 24 h at 4°C with a Guinea pig polyclonal anti-HDC antiserum (1:1,000 in PBS containing 2% BSA and 0.25% Triton; Fisher scientific). After several rinses (3 × 5 min in PBS with 2% BSA and 3 × 5 min in PBS with 5% BSA) sections were incubated for 1 h, respectively, in biotinylated rabbit anti-guinea pig IgG (1:200 in PBS containing 2% BSA; from Vector Laboratories, Burlingame, CA). […]\nThe tuberomammillary nuclei (TMN) of the posterior hypothalamus, the sole structure in the brain containing histaminergic neurons, were identified using Berman's stereotaxic atlas ([38]). […] Serial sections in the TMN of each animal were analyzed, five sections at each of the five rostrocaudal levels examined (A12, A11, A10.2, A9.5, and A8.3) being quantified. The number of HDC immunoreactive neurons was quantified by means of a computer-assisted image analysis (DMLB microscope: Leica Microsystems, Wetzlar, Germany) equipped with a DXM 1200 Nikon high-resolution digital camera (1,024 × 1,024 pixels; Nikon, Tokyo, Japan) interfaced to a PC computer employing image software for capturing and processing the images (Lucia G, Nikon, Champigny-sur-Marne, France). Quantification of the immunolabeled neurons was performed via a gray-level method by adjusting a threshold brightness value, and only cells labeled with a gray value above this threshold were taken into account. Reproducibility was assessed by comparing the same data analyzed independently by two researchers blind to the animals' groups. The specific immunolabeling was quantified in each section as the number of labeled neurons, and was automatically computed and evaluated thereafter as the mean (± SEM) for each side, each cat, and each subgroup of cats. To eliminate quantification problems due to potentially asymmetric slides, data were collected from symmetrical slides only, and symmetry was assessed on the basis of the number of cells stained with cresyl violet on each side. […]"}, "[3]": {"test_system": "monoamine oxidase a/b", "settings": "background statement, no reference given; cited from earlier work"}, "[4]": {"settings": "cats, abstract statement, up to"}, "[5]": {"settings": "0.2 mg/kg, UVN cats, oral betahistine 0.2 mg/kg alone, day 1"}, "[6]": {"settings": "2 mg/kg, UVN cats, oral betahistine 2 mg/kg alone, day 1"}, "[7]": {"settings": "2 mg/kg, UVN cats, oral betahistine 2 mg/kg alone, day 21"}, "[8]": {"settings": "UVN cats, oral betahistine 0.2 mg/kg plus selegiline 1 mg/kg, day 1"}, "[9]": {"settings": "UVN cats, oral betahistine 0.2 mg/kg plus selegiline 1 mg/kg, day 21"}, "[10]": {"settings": "UVN D40, betahistine 2 mg/kg, p < 0.0001"}},
  "note": "Where two headings read alike, the source gives them in different places.",
  "data": [
    {"smiles": "CNCCc1ccccn1", "note": "[Betahistine, betahistine]", "values": [
      {"measurement": "Cmax- and AUC-values in cats compared to human", "setting": "[1]; cats higher than human", "result": "40–50 times"},
      {"measurement": "Increase of betahistine AUC by co administration of selegiline", "setting": "[1]; [4]", "result": "≤ 180", "unit": "fold"},
      {"measurement": "Increase of betahistine Cmax by co administration of selegiline", "setting": "[1]; [4]", "result": "up to 146 fold"},
      {"measurement": "AUC", "setting": "[1]; 0.2 mg/kg, PK/PD table, DAY 2, BH 0.2 mg/kg, read-out: AUC (betahistine)", "result": 3.65, "unit": "ng·h/mL"},
      {"measurement": "Cmax", "setting": "[1]; 0.2 mg/kg, PK/PD table, DAY 2, BH 0.2 mg/kg, read-out: Cmax (betahistine)", "result": 4.11, "unit": "ng/mL"},
      {"measurement": "Tmax", "setting": "[1]; [5]", "result": 0.25, "unit": "h"},
      {"measurement": "AUC", "setting": "[1]; 0.2 mg/kg, UVN cats, oral betahistine 0.2 mg/kg alone, day 1, read-out: Betahistine AUC", "result": "3.7 ± 2.1", "unit": "ng·h/mL"},
      {"measurement": "Cmax", "setting": "[1]; 0.2 mg/kg, UVN cats, oral betahistine 0.2 mg/kg alone, day 1, read-out: Betahistine Cmax", "result": "4.1 ± 2.9", "unit": "ng/mL"},
      {"measurement": "half-life", "setting": "[1]; [5]", "result": "1.9 ± 0.7", "unit": "h"},
      {"measurement": "Tmax", "setting": "[1]; 0.2 mg/kg, UVN cats, oral betahistine 0.2 mg/kg alone, day 21", "result": 2, "unit": "h"},
      {"measurement": "half-life", "setting": "[1]; 0.2 mg/kg, UVN cats, oral betahistine 0.2 mg/kg alone, day 21, n = 2", "result": 4, "unit": "h"},
      {"measurement": "AUC", "setting": "[1]; 0.2 mg/kg, UVN cats, oral betahistine 0.2 mg/kg alone, day 21, read-out: Betahistine AUC", "result": "1.5 ± 0.6", "unit": "ng·h/mL"},
      {"measurement": "Cmax", "setting": "[1]; 0.2 mg/kg, UVN cats, oral betahistine 0.2 mg/kg alone, day 21, read-out: Betahistine Cmax", "result": "0.6 ± 0.4", "unit": "ng/mL"},
      {"measurement": "AUC", "setting": "[1]; 2 mg/kg, PK/PD table, DAY 2, BH 2.0 mg/kg, read-out: AUC (betahistine)", "result": 26.7, "unit": "ng·h/mL"},
      {"measurement": "Cmax", "setting": "[1]; 2 mg/kg, PK/PD table, DAY 2, BH 2.0 mg/kg, read-out: Cmax (betahistine)", "result": 54, "unit": "ng/mL"},
      {"measurement": "Tmax", "setting": "[1]; [6]", "result": 0.25, "unit": "h"},
      {"measurement": "AUC", "setting": "[1]; 2 mg/kg, UVN cats, oral betahistine 2 mg/kg alone, day 1, read-out: Betahistine AUC", "result": "19.7 ± 5", "unit": "ng·h/mL"},
      {"measurement": "Cmax", "setting": "[1]; 2 mg/kg, UVN cats, oral betahistine 2 mg/kg alone, day 1, read-out: Betahistine Cmax", "result": "23.8 ± 11.2", "unit": "ng/mL"},
      {"measurement": "half-life", "setting": "[1]; [6]", "result": "3 ± 2.6", "unit": "h"},
      {"measurement": "Tmax", "setting": "[1]; [7]", "result": 0.5, "unit": "h"},
      {"measurement": "AUC", "setting": "[1]; 2 mg/kg, UVN cats, oral betahistine 2 mg/kg alone, day 21, read-out: Betahistine AUC", "result": "51 ± 42.4", "unit": "ng·h/mL"},
      {"measurement": "Cmax", "setting": "[1]; 2 mg/kg, UVN cats, oral betahistine 2 mg/kg alone, day 21, read-out: Betahistine Cmax", "result": "38.9 ± 34.9", "unit": "ng/mL"},
      {"measurement": "half-life", "setting": "[1]; [7]", "result": "1.6 ± 0.3", "unit": "h"},
      {"measurement": "AUC", "setting": "[1]; PK/PD table, DAY 2, BH 0.2 mg/kg + Selegiline 1 mg/kg, read-out: AUC (betahistine)", "result": 19.7, "unit": "ng·h/mL"},
      {"measurement": "Cmax", "setting": "[1]; PK/PD table, DAY 2, BH 0.2 mg/kg + Selegiline 1 mg/kg, read-out: Cmax (betahistine)", "result": 23.8, "unit": "ng/mL"},
      {"measurement": "Tmax", "setting": "[1]; [8]", "result": 0.25, "unit": "h"},
      {"measurement": "AUC", "setting": "[1]; UVN cats, oral betahistine 0.2 mg/kg plus selegiline 1 mg/kg, day 1, read-out: Betahistine AUC", "result": "26.7 ± 24.1", "unit": "ng·h/mL"},
      {"measurement": "half-life", "setting": "[1]; [8]", "result": "2.5 ± 0.5", "unit": "h"},
      {"measurement": "Tmax", "setting": "[1]; [9]", "result": 1, "unit": "h"},
      {"measurement": "AUC", "setting": "[1]; UVN cats, oral betahistine 0.2 mg/kg plus selegiline 1 mg/kg, day 21, read-out: Betahistine AUC", "result": "6.7 ± 5.1", "unit": "ng·h/mL"},
      {"measurement": "Cmax", "setting": "[1]; UVN cats, oral betahistine 0.2 mg/kg plus selegiline 1 mg/kg, day 21, read-out: Betahistine Cmax", "result": "13.2 ± 13", "unit": "ng/mL"},
      {"measurement": "half-life", "setting": "[1]; [9]", "result": "1.9 ± 0.4", "unit": "h"},
      {"measurement": "Betahistine Cmax with versus without selegiline co-administration", "setting": "[1]; repeated administration, day 21", "result": 65, "unit": "fold"},
      {"measurement": "Increase of betahistine AUC0−7h by selegiline 1 mg/kg", "setting": "[1]; single administration, day 1", "result": "~ 5 fold"},
      {"measurement": "Increase of betahistine Cmax by selegiline 1 mg/kg", "setting": "[1]; single administration, day 1", "result": "~ 5 fold"},
      {"measurement": "Number of HDC immunoreactive neurons, ipsilateral TMN", "setting": "[2]; UVN D40, betahistine 0.2 mg/kg without selegiline, UVN untreated 151.78 ± 3.29", "result": "151.3 ± 1.51"},
      {"measurement": "Number of HDC immunoreactive neurons, contralateral TMN", "setting": "[2]; UVN D40, betahistine 0.2 mg/kg without selegiline, UVN untreated 152.4 ± 3.63", "result": "151.1 ± 1.63"},
      {"measurement": "Number of HDC immunoreactive neurons, contralateral TMN", "setting": "[2]; [10]", "result": "191.68 ± 2.04"},
      {"measurement": "Number of HDC immunoreactive neurons, ipsilateral TMN", "setting": "[2]; [10]", "result": "190.85 ± 1.58"},
      {"measurement": "Number of HDC immunopositive neurons on both sides, on average", "setting": "[2]; lesion and betahistine 2 mg/kg, 40 days post-lesion, compared to UVN untreated cats as worded", "result": 210, "unit": "%"},
      {"measurement": "Share of the drug fastly metabolized by the monoamine oxidase a/b", "setting": "[3]", "result": 95, "unit": "%"}
    ]}
  ]
}
